# Source: patent US7132437B2, “Renal-selective biphenylalkyl 1H-substituted-1,2,4-triazole angiotensin II antagonists for treatment of hypertension” (G.D. Searle, priority 1990, dated 2006)
# Target: T1, smooth muscle angiotensin II receptor
# T1 construct: Rat uterine membranes were prepared from fresh tissue
# Experiment: Assay A: Angiotensin II Binding Activity
# Conditions: rat uterine membrane preparation, displacement of 125I-AII
# Experimental: Assay A: Angiotensin II Binding Activity
# Compounds of Formula I were tested for ability to bind to the smooth muscle angiotensin II receptor using a rat uterine membrane preparation. […] Other chemicals were obtained from Sigma Chemical Co. This assay was carried out according to the method of Douglas et al [Endocrinology, 106, 120–124 (1980)]. Rat uterine membranes were prepared from fresh tissue. All procedures were carried out at 4° C. Uteri were stripped of fat and homogenized in phosphate-buffered saline at pH 7.4 containing 5 mM EDTA. The homogenate was centrifuged at 1500×g for 20 min., and the supernatant was recentrifuged at 100,000×g for 60 min. The pellet was resuspended in buffer consisting of 2 mM EDTA and 50 mM Tris-HCl (pH 7.5) to a final protein concentration of 4 mg/ml. […] The reaction was initiated by the addition of membrane protein and the mixture was incubated at 25° C. for 60 min. The incubation was terminated with ice-cold 50 mM Tris-HCl (pH 7.5) and the mixture was filtered to separate membrane-bound labelled peptide from the free ligand. The incubation tube and filter were washed with ice-cold buffer. Filters were assayed for radioactivity in a Micromedic gamma counter. Nonspecific binding was defined as binding in the presence of 10 μM of unlabelled AII. Specific binding was calculated as total binding minus nonspecific binding. […] Binding data were analyzed by a nonlinear least-squares curve fitting program.
row,IC50 [µM],Compound
1,0.019,"CCCCc1nc(CCC2CCCCC2)nn1Cc1ccc(-c2ccccc2-c2nnn[nH]2)cc1 (single isomer, unassigned) [Example 43, 5-[4′-[[5-butyl-3-(2-cyclohexylethyl)-1H-1,2,4-triazol-1-yl]methyl][1,1′-biphenyl]-2-yl]-1H-tetrazole]"
2,0.01,"CCCCc1nc(CC(OCC)OCC)nn1Cc1ccc(-c2ccccc2-c2nnn[nH]2)cc1 (single isomer, unassigned) [Example 38, 5-[4′-[[5-butyl-3-(2,2-diethyoxyethyl)-1H-1,2,4-triazol-1-yl]methyl][1,1′-biphenyl]-2-yl]-1H-tetrazole]"
3,0.68,"CCCCc1nc(C(F)F)n(Cc2ccc(-c3ccccc3-c3nnn[nH]3)cc2)n1 (single isomer, unassigned) [Example 48, 5-[4′-[[3-butyl-5-(difluoromethyl)-1H-1,2,4-triazol-1-yl]methyl][1,1′-biphenyl]-2-yl]-1H-tetrazole]"
4,0.16,"CCCCc1nc(C(F)(F)CCC)n(Cc2ccc(-c3ccccc3C(=O)O)cc2)n1 [Example 11, 4′-[[3-butyl-5-(1,1-difluorobutyl)-1H-1,2,4-triazol-1-yl]methyl][1,1′-biphenyl]-2-carboxylic acid]"
5,0.16,"CCCCCCCCc1nc(CCCC)n(Cc2ccc(-c3ccccc3-c3nnn[nH]3)cc2)n1 (single isomer, unassigned) [Example 29, 5-[4′-[(5-butyl-3-octyl-1H-1,2,4-triazol-1-yl)methyl][1,1′-biphenyl]-2-yl]-1H-tetrazole]"
6,17,"CCCCc1nc(Cl)n(Cc2ccc(-c3ccccc3C(=O)O)cc2)n1 (single isomer, unassigned) [Example 8, 4′-[(3-butyl-5-chloro-1H-1,2,4-triazol-1-yl)methyl][1,1′-biphenyl]-2-carboxylic acid]"
7,0.014,"CCCCc1nc(CNC(C)=O)nn1Cc1ccc(-c2ccccc2-c2nnn[nH]2)cc1 [Example 31, N-[[5-butyl-1-[2′-(1H-tetrazol-5-yl)[1,1′-biphenyl]-4-ylmethyl]-1H-1,2,4-triazol-3-yl]methyl]acetamide]"
8,0.63,"CCCCc1nc(C)n(Cc2ccc(-c3ccccc3-c3nnn[nH]3)cc2)n1 (single isomer, unassigned) [Example 33, 5-[4′-[(3-butyl-5-methyl-1H-1,2,4-triazol-1-yl)methyl][1,1′-biphenyl]-2-yl]-1H-tetrazole]"
9,0.083,"CCCCc1nc(CC)n(Cc2ccc(-c3ccccc3-c3nnn[nH]3)cc2)n1 (single isomer, unassigned) [Example 40, 5-[4′-[(3-butyl-5-ethyl-1H-1,2,4-triazol-1-yl)methyl][1,1′-biphenyl]-2-yl]-1H-tetrazole]"

row,Compound,IC50 [µM]
1,"1,1-dimethylethyl [3-butyl-[1-2′-(1H-tetrazol-5-yl)[1,1′-biphenyl]-4-ylmethyl]-1H-1,2,4-triazol-5-yl]methylcarbamate [Example 34]",0.64
2,"CCCCc1nc(C(F)(F)C(F)(F)C(F)(F)F)nn1Cc1ccc(-c2ccccc2-c2nnn[nH]2)cc1 [Example 70, 5-[4′-[[3-(1,1,2,2,3,3,3-heptafluoropropyl)-5-butyl-1H-1,2,4-triazol-1-yl]methyl][1,1′-biphenyl]-2-yl]-1H-tetrazole]",0.044
